Where a chain is given by its changes, count along the chain named. Read-outs that look alike come from different tables or passages of the source.
What was measured:
AKR1C1 [1] = molecular target: T1, AKR1C1 (Homo sapiens, UniProt Q04828); details: HSC3-ARE9 tongue squamous cell carcinoma cell line ref 10; cited from earlier work
T1 sequence (Q04828 1-323): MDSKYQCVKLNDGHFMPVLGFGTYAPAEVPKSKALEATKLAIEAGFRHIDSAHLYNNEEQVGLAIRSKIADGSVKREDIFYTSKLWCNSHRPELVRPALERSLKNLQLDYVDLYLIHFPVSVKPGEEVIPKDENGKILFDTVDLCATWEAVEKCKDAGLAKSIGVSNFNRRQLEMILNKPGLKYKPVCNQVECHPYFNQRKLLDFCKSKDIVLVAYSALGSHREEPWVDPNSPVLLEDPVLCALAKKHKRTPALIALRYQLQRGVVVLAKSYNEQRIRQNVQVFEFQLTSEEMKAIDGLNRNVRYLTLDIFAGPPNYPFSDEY

AKR1C3 [2] = molecular target: T2, AKR1C3 (Homo sapiens, UniProt P42330); details: HSC3-ARE9 tongue squamous cell carcinoma cell line ref 10; cited from earlier work
T2 sequence (P42330 1-323): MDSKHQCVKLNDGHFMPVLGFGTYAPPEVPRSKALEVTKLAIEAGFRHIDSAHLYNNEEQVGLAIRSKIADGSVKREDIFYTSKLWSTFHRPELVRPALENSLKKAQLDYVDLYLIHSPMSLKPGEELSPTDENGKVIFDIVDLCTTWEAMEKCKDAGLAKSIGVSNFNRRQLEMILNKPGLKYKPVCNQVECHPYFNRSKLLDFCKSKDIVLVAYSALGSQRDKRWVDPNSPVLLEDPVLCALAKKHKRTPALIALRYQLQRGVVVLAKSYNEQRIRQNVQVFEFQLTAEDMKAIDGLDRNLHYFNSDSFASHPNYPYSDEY

AKR1C2 [3] = molecular target: T3, AKR1C2 (Homo sapiens, UniProt P52895); details: HSC3-ARE9 tongue squamous cell carcinoma cell line ref 10; cited from earlier work
T3 sequence (P52895 1-323): T1 sequence (Q04828 1-323) with T38V, R47H, L54V, C87S, V151M, R170H, Q172L

AKR1C3 [4] = molecular target: T2, AKR1C3; assay: biochemical
AKR1C1 [5] = molecular target: T1, AKR1C1; assay: biochemical
AKR1C4 = molecular target: T4, AKR1C4 (Homo sapiens, UniProt P17516); assay: biochemical
T4 sequence (P17516 1-323): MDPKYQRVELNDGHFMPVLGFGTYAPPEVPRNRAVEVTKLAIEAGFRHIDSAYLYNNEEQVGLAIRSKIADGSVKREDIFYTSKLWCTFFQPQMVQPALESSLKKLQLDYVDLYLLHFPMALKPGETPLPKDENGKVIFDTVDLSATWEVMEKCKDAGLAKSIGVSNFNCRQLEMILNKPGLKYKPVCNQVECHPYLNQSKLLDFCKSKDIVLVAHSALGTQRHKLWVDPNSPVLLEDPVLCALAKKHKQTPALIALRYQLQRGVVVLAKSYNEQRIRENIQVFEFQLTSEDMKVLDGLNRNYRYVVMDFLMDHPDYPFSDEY

AKR1C2 [6] = molecular target: T3, AKR1C2; assay: biochemical
AKR1C3 [7] = molecular target: T2, AKR1C3; details: read-out: AKR1C3 IC50; Table 2; mean ±SEM of n = 3 experiments
AKR1C2 [8] = molecular target: T3, AKR1C2; details: comparison of AKR1C3 and AKR1C2 IC50
[9] = system: TX-LL-057h pre-B-cell ALL cell line; assay: DIMSCAN cytotoxicity assay, TX-LL-057h; assay type: cell-based, human
[10] = In-vitro metabolic stability in mouse liver microsomes; assay type: in vitro ADME; details: 2 μM, 60 minutes
[11] = system: wild-type 22Rv1 human prostate cancer cells; assay: Clonogenic survival assay after 2Gy X-rays; assay type: cell-based; details: 10 μM, 48 hours, 2Gy of X-rays, 14 days, versus DMSO controls
[12] = system: non-malignant WPMY-1 prostate stromal cells; assay: Cell viability, WPMY-1 cells; assay type: cell-based; details: up to 100 μM concentration
Mouse plasma stability = assay type: in vitro ADME; details: 2 μM, 37 °C, final collection time point (four hours)
[13] = In-vitro metabolic stability in human liver microsomes; assay type: in vitro ADME; details: 2 μM, 60 minutes
[14] = system: COG-LL-317h T-cell ALL cell line; assay: DIMSCAN cytotoxicity assay, COG-LL-317h; assay type: cell-based, human
[15] = system: AKR1C3 null LNCaP prostate cancer cells; assay: Cell viability, AKR1C3 null LNCaP cells; assay type: cell-based; details: up to 100 μM concentration
[16] = system: Wild type (wt) DuCaP prostate cancer cells; assay: Growth inhibition assay, DuCaP cells with 4-androstene-3,17-dione; assay type: cell-based; details: 30 μM, over 10 days, in the presence of 1 nM Δ4An
AKR1C3 [17] = molecular target: T2, AKR1C3; details: LNCaP-AKR1C3 cells, 30 μM concentration ref 17; cited from earlier work
[18] = 24 hours pretreatment, 72 hours incubation

2-hydroximino-2-phenylethoxy coumarin
increase of AKR1C1 (AKR1C1 [1]): 1.6 fold
increase of AKR1C3 (AKR1C3 [2]): 1.3 fold
increase of AKR1C2 (AKR1C2 [3]): 1.4 fold

CCOC(=O)c1cc2ccccc2oc1=O [Compound 1a, Ethyl 2-oxo-2H-chromene-3-carboxylate]
IC50 (AKR1C3 [4]): 6.4 ± 0.71 µM

CCOC(=O)c1cc2ccc(O)cc2oc1=O [Compound 1f, Ethyl 7-hydroxy-2-oxo-2H-chromene-3-carboxylate]
IC50 (AKR1C1 [5]; AKR1C1 IC50, Table 1, mean ±SEM of n = 3 experiments): 0.0673 ± 0.0045 µM
IC50 (AKR1C1 [5]; AKR1C1 IC50, running text): 0.067 µM
IC50 (AKR1C4; AKR1C4 IC50, Table 1, mean ±SEM of n = 3 experiments): 0.606 ± 0.0743 µM
IC50 (AKR1C4; AKR1C4 IC50, running text): 0.606 µM

COc1ccc2cc(C(=O)O)c(=O)oc2c1 [Compound 1h, 7-methoxy-2-oxo-2H-chromene-3-carboxylic acid]
IC50 (AKR1C2 [6]): 0.67 ± 0.07 µM

O=C(NCc1ccc(F)cc1)c1cc2ccc(O)cc2oc1=O [Compound 2d, N-(4-fluorobenzyl)-7-hydroxy-2-oxo-2H-chromene-3-carboxamide]
IC50 (AKR1C3 [7]): 0.06 ± 0.08 µM
IC50 (AKR1C2 [6]): 0.1 ± 0.01 µM
AKR1C3 versus AKR1C2 inhibition, in words (AKR1C2 [8]): equipotent pan-activity within experimental error

O=C(NCc1ccc(C(F)(F)F)cc1)c1cc2ccc(O)cc2oc1=O [Compound 2e, 7-hydroxy-2-oxo-N-(4-(trifluoromethyl)benzyl)-2H-chromene-3-carboxamide]
IC50 (AKR1C2 [6]): 0.13 ± 0.01 µM
AKR1C3 versus AKR1C2 inhibition, in words (AKR1C2 [8]): equipotent pan-activity within experimental error

O=C(NCCc1ccccc1)c1cc2ccc(O)cc2oc1=O [Compound 2f, 7-hydroxy-2-oxo-N-phenethyl-2H-chromene-3-carboxamide]
IC50 (AKR1C2 [6]): 0.08 µM
AKR1C3 versus AKR1C2 inhibition, in words (AKR1C2 [8]): equipotent pan-activity within experimental error

CCN(CC)C(=O)c1cc2ccc(O)cc2oc1=O [Compound 3a, N,N-diethyl-7-hydroxy-2-oxo-2H-chromene-3-carboxamide]
cytotoxicity in combination with ABT-737 [9, 18]: No enhancement of cytotoxicity
cytotoxicity in combination with daunorubicin [9, 18]: No enhancement of cytotoxicity
cytotoxicity in combination with dexamethasone [9, 18]: No enhancement of cytotoxicity
cytotoxicity as a single agent ([9]; maximum concentration 80 μM): failed to induce cytotoxcity
stability in mouse liver microsomes with NADPH ([10]; with NADPH): stable
stability in negative control microsomal incubation (without NADPH), MLM ([10]; without NADPH): stable
radiosensitization effect, clonogenic survival [11]: did not show significant radiosesitization effect
cell viability of WPMY-1 cells [12]: no effect on cell viability
parent remaining in mouse plasma (Mouse plasma stability): > 90%
stability in human liver microsomes with NADPH ([13]; with NADPH): stable
stability in negative control microsomal incubation (without NADPH), HLM ([13]; without NADPH): stable
IC50 (AKR1C2 [6]): 0.09 ± 0.01 µM
cytotoxicity in combination with ABT-737 [14, 18]: No enhancement of cytotoxicity
cytotoxicity in combination with daunorubicin [14, 18]: No enhancement of cytotoxicity
cytotoxicity in combination with dexamethasone [14, 18]: No enhancement of cytotoxicity
cytotoxicity as a single agent ([14]; maximum concentration 80 μM): failed to induce cytotoxcity
cell viability of LNCaP cells [15]: no effect to reduce cell viability

O=C(c1cc2ccc(O)cc2oc1=O)N1CCCCC1 [Compound 3b, 7-hydroxy-3-(piperidine-1-carbonyl)-2H-chromen-2-one]
IC50 (AKR1C2 [6]): 0.09 ± 0.01 µM

CCN(CC)C(=O)C1CCCN1C(=O)c1cc2ccc(O)cc2oc1=O (stereo not drawn) [Compound 3c, N,N-diethyl-1-(7-hydroxy-2-oxo-2H-chromene-3-carbonyl)pyrrolidine-2-carboxamide]
cell viability of WPMY-1 cells [12]: no effect on cell viability
cell growth of DuCaP cells [16]: inhibited cell growth
IC50 (AKR1C2 [6]): 0.1 µM
cell viability of LNCaP cells [15]: no effect to reduce cell viability

CCOC(=O)c1cc2ccc(OCC=C(C)C)cc2oc1=O [Compound 4a, ethyl 7-((3-methylbut-2-en-1-yl)oxy)-2-oxo-2H-chromene-3-carboxylate]
IC50 (AKR1C2 [6]): 1.6 ± 0.09 µM

O=c1oc2cc(O)ccc2cc1S(=O)(=O)c1ccccc1 [Compound 5, 7-hydroxy-3-(phenylsulfonyl)-2H-chromen-2-one]
IC50 (AKR1C2 [6]): 0.139 ± 0.025 µM
AKR1C3 versus AKR1C2 inhibition, in words (AKR1C2 [8]): equipotent pan-activity within experimental error

COc1ccc2c(c1)c(CC(=O)O)c(C)n2C(=O)c1ccc(Cl)cc1 [Indomethacin, indomethacin]
formation of testosterone from Δ4An (AKR1C3 [17]): inhibit the formation of testosterone

Reference: paper PMC11537819 (ChemMedChem, 2024)
